The values below come from patent US20100240764A1, “Use of S-Clenbuterol” (EUCRO EUROPEAN CONTRACT RESEARCH GMBH & CO. KG, priority 2005, published 2010).

Experiment [1] has as its system hippocampal neurons. The experiment is described as follows: Glutamate-induced excitotoxic cell death in cultured hippocampal neurons, trypan blue exclusion. Format: cell-based, rat. The settings on record: 10 μM, glutamate 500 μM for 1 h; for protection of neurons against glutamate excitotoxic insult: trypan blue-stained cultures 18 h after exposure (FIG. 2). The method, then: (§1) Neuronal cultures. Mixed primary cultures of hippocampal neurons and glial cells were prepared from neonatal Fischer 344 rats as described in Brain Research 1717 (1996) 44-54. Experiments were carried out after 10 days in culture. The NMDA antagonist memantine (Merz, Germany) and clenbuterol were applied 1 h or 5 h before exposure of the cells to glutamate (500 μmol/L, 1 h), respectively. For induction of excitotoxic cell death, medium (conditioned medium) was collected and glutamate-containing medium was added, and then exchanged again after 1 h by the conditioned ? enantiomeres were present in the culture medium also during and after exposure to glutamate. For induction of apoptosis, neurons were exposed to staurosporine (STS, 200 nmol/L, Sigma) […]. Cell death was determined by the trypan blue exclusion method or after staining the nuclei with the DNA-binding fluorochrom Hoechst 33258 as in Brain Research 1717 (1996) 44-54 and in STROKE 2004, 35: 1197-1202.
The protective effects of the clenbuterol enantiomers in cultured neurons exposed to STS (200 nM) which induced apoptosis or glutamate (500 μM) which induced ecitotoxic cell death with morphological features of necrosis. The Clenbuterol enantiomeres were added to the culture medium at a concentration of 10 μM h before the onset of apoptotic or excitotoxic stress. […] Further, it was investigated whether such differences in the protective effect of the clenbuterol enantiomers could also be observed in a paradigm of necrotic cell death induced by glutamate.

Experiment [2] relates to hippocampal neurons. The experiment is described as follows: Staurosporine (STS)-induced apoptosis in cultured hippocampal neurons, Hoechst 33258 nuclear staining. Type of experiment: cell-based, rat. The settings on record: 10 μM enantiomer added before STS 200 nM; apoptotic nuclei quantified 18 h after exposure; vs STS-treated controls (FIG. 1). The method, then:
as §1
The protective effects of the clenbuterol enantiomers in cultured neurons exposed to STS (200 nM) which induced apoptosis or glutamate (500 μM) which induced ecitotoxic cell death with morphological features of necrosis. The Clenbuterol enantiomeres were added to the culture medium at a concentration of 10 μM h before the onset of apoptotic or excitotoxic stress. […]

A further experiment concerns rat uterus. As to conditions: Clenbuterol isomers; literature; cited from earlier work.
For experiment [3] the following is noted: literature, Eur J Pharmacol 117 (1985) 127-129; cited from earlier work.
The conditions of experiment [4]: literature, Eur J Pharmacol 446 (2002) 25-36; cited from earlier work.

For the molecule `CC(C)(C)NC[C@H](O)c1cc(Cl)c(N)c(Cl)c1` [R-clenbuterol], the “protection of neurons against glutamate excitotoxic insult” value with hippocampal neurons [1] is on record as “did not show any protective effect”. Moreover, the “STS-induced neuronal cell death (apoptotic nuclei)” value in the experiment on hippocampal neurons [2] is listed as “did not affect STS-induced apoptosis”. Besides, the “relaxant response in rat uterus” value in the experiment on rat uterus was “shows the effect”. In addition, in experiment [3], the “activity in psychopharmacological tests (CNS-effect)” value is reported as “based only on the (−)-enantiomer”.

For `CC(C)(C)NC[C@@H](O)c1cc(Cl)c(N)c(Cl)c1` [S-Clenbuterol], the “number of trypan blue positive neurons” value in the experiment with hippocampal neurons [1] (18 h after exposure) is given as “reduced the number of trypan blue positive neurons to control levels”. Also, in the experiment on hippocampal neurons [1], the “protection of neurons against glutamate excitotoxic insult” value is given as “significantly protected the neurons against the excitotoxic insult”. The “STS-induced neuronal cell death (apoptotic nuclei)” value in the experiment with hippocampal neurons [2] is recorded as “significantly attenuated STS-induced neuronal cell death”. Further, the “relaxant response in rat uterus” value with rat uterus was “not involved in the effects”. In addition, the “activity in psychopharmacological tests (CNS-effect)” value in experiment [3] is “did not show any CNS-effect”.

As to `CC(C)(C)NCC(O)c1cc(Cl)c(N)c(Cl)c1` (racemic) [racemic Clenbuterol, Clenbuterol], in experiment [4], the “effects in preclinical models of neuroprotection” value was “positive effects”.
